Experimental data published in the NIST ThermoML archive (doi:10.1021/je900347f).

Assay: excess molar enthalpy (molar enthalpy of mixing); xn = mol fraction of the nth substance listed
Conditions: 308.15 K, 101 kPa, Liquid, Flow calorimetry

C1CCNCC1 [piperidine] + C1CCCCC1
Conditions | excess molar enthalpy [kcal/mol]
x2 = 0.101 | 0.0617
x2 = 0.201 | 0.114
x2 = 0.3 | 0.155
x2 = 0.4 | 0.186
x2 = 0.499 | 0.202
x2 = 0.601 | 0.202
x2 = 0.679 | 0.19
x2 = 0.801 | 0.152
x2 = 0.901 | 0.0935

C1CCNCC1 [piperidine] + C1CCOCC1
Conditions | excess molar enthalpy [kcal/mol]
x2 = 0.102 | 0.0249
x2 = 0.196 | 0.0435
x2 = 0.301 | 0.0581
x2 = 0.397 | 0.0667
x2 = 0.497 | 0.0698
x2 = 0.598 | 0.0679
x2 = 0.7 | 0.06
x2 = 0.801 | 0.0464
x2 = 0.893 | 0.0277

C1CCOCC1 [tetrahydropyran] + C1CCCCC1
Conditions | excess molar enthalpy [kcal/mol]
x2 = 0.101 | 0.0375
x2 = 0.2 | 0.0703
x2 = 0.3 | 0.0985
x2 = 0.4 | 0.117
x2 = 0.499 | 0.126
x2 = 0.606 | 0.124
x2 = 0.699 | 0.11
x2 = 0.8 | 0.0848
x2 = 0.9 | 0.0473
